This is an account of results in patent US20090181952A1 (Wyeth, priority 2008, published 2009).

Each structure is given as a SMILES string. Like-named read-outs stand apart in the source and are kept apart here.

One data set deals with T1, rat-alpha7-nAChR (Rattus norvegicus, UniProt Q05941).
T1 construct: expressed in transfected cells
Nature of the data set: functional FLIPR assay, alpha7 nAChR stably expressed in GH4C1 cells. The class given is cell-based.

The nature of data set [1]: metabolite profile in dog plasma by LC/MS. The class given is in vivo. As to conditions: dog plasma after single […] IV or 7.6 mg/kg PO dose of parent. The method, then:
(§1) Rat plasma samples from single 6.7 mg/kg IV at 0, 10 min and 20.5 mg/kg IV at 0, 0.5, 4 hr post dosing; dog plasma samples from single 1.5 mg/kg IV at 0, 0.167, 1, 6 hr and 7.6 mg/kg PO at 0, 0.5, 2, 6 hr post dosing were analyzed by LC/MS. A standard of the parent compound was analyzed by LC/MS and there was no impurity detected.

A short description of data set [2]: metabolite profile in rat plasma by LC/MS. Format: in vivo. The following applies: rat plasma after single 6.7 or 20.5 mg/kg IV dose of parent. As to the method:
as §1
In rat plasma, a compound of formula I was the predominant compound-related material while metabolites were detected at very low levels. […] (See FIGS. 1 and 2; for compound I′ n=1, R^1=methyl, and R^2═H)

Setting [3] is: functional FLIPR primary screening assay, GH4C1 cell line expressing α7 nAChR, read-out: Alpha7 EC50.

T1 sequence (Q05941 23-502): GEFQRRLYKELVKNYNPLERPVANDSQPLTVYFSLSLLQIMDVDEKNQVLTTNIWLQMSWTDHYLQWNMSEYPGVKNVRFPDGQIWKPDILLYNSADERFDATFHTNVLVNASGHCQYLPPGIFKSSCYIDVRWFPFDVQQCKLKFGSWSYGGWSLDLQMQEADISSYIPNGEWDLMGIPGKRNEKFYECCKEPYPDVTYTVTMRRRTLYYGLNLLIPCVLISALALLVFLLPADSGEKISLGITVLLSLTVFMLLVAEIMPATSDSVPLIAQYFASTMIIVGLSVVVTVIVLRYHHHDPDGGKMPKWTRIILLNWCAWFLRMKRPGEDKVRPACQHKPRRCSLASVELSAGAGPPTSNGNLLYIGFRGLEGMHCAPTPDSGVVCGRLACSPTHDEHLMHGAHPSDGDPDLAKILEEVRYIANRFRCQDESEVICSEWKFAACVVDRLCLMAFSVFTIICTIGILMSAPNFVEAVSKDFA
Excerpt for rat-alpha7-nAChR: Rat GH4C1 cells were then transfected with the rat receptor, cloned and analyzed for functional alpha7 nicotinic receptor expression employing a FLIPR assay to measure changes in intracellular calcium concentrations.
The FLIPR system allows the measurements of real time Ca^2+-concentration changes in living cells using a Ca^2+ sensitive fluorescence dye (such as Fluo4). This instrument enables the screening for agonists and antagonists for alpha 7 nAChR channels stably expressed in GH4C1 cells.
GH4C1 cells stably transfected with rat-alpha7-nAChR (see above) were used. These cells are poorly adherent and therefore pretreatment of flasks and plates with poly-D-lysine was carried out. Cells are grown in 150 cm^2 T-flasks, filled with 30 ml of medium at 37° C. and 5% CO2.
EC50 and IC50 values were calculated using the IDBS XLfit4.1 software package employing a sigmoidal concentration-response (variable slope) equation:

A word on the EC50: it is the concentration that produces a half-maximal response. On to `CC(=O)N1CCCC(CCCCC(=O)Nc2cc(-c3ccc(O)cc3)[nH]n2)CC1` (stereo not drawn), for which the EC50 on rat-alpha7-nAChR (setting [3]) came to 1000 nM. Still for that read-out and setting: under `COc1ccc(C2CC(NC(=O)CCCCN3CCCNCC3)NN2)cc1` (stereo not drawn) stands 6900 nM. `CC(=O)N1CCCN(CCCCC(=O)Nc2cc(-c3ccc(O)cc3)n[nH]2)CC1` [Compound I-1]: the “compound-related material detected in dog plasma” value in data set [1] is listed as “very minor metabolite”. Moreover, in data set [2], the “compound-related material detected in rat plasma” value is “detected as metabolites”. Turning to `CC(=O)N1CCCN(CCCCC(=O)Nc2cc(-c3ccc(OS(=O)(=O)O)cc3)[nH]n2)CC1` [Compound I-2], the “compound-related material detected in rat plasma” value in data set [2] is on record as “detected as metabolites”. With `C[N+]1(C)CCN(c2ccccc2)CC1` [DMPP, reference compound], the EC50 on rat-alpha7-nAChR (alpha7 nAChR stably expressed in GH4C1 cells, functional FLIPR assay, agonist validation, read-out: EC50) turned out to be 980 ± 470 nM.
